Measured values taken from publication PMC6891756, “Synthesis and Biological Evaluation of Novel Aminochalcones as Potential Anticancer and Antimicrobial Agents” (Molecules, 2019).
≈ marks a conversion by molar mass, not a printed value.

What was measured:
[1] = test system: all tested microorganisms; assay: Growth curve screening, all tested microorganisms (pooled statement); format: cell-based; details: 0.1% (w/v)
Experimental: The antimicrobial screening tests were performed on two strains of bacteria: E. coli ATCC10536 and S. aureus DSM799, strain of yeast C. albicans DSM1386 and three strains of fungi: F. linii KB-F1, A. alternata CBS1526 and A. niger DSM1957. All microorganisms were obtained from the collection of the Faculty of Biotechnology and Food Microbiology, Wrocław University of Environmental and Life Sciences. The bacteria were cultured in nutrient broth (Biocorp, Warsaw, Poland), yeast and fungi in YM medium (3 g yeast extract, 3 g malt extract, 5 g bacteriological peptone and 10 g of glucose dissolved in 1 L of distilled water). The tests were carried out in 100-well microtiter plates. […] The optical density of the cell suspension was measured on Bioscreen C (Automated Growth Curve Analysis System Lab System, Vantaa, Finland) at 560 nm automatically, at regular intervals of 30 min for 2–3 days. […] To prepare the growth curves for each strain, the mean values of the absorbance in a function of time were used. The resulting antimicrobial activity was expressed as the increase of optical density (ΔOD) and was compared to that of the control cultures in the medium supplemented with dimethyl sulfoxide and also with reference substances: oxytetracycline (against bacteria), cycloheximide (against yeast) and nystatin (against fungi) (Sigma Aldrich).

LS180 = assay: SRB antiproliferative assay, LS180; format: cell-based, human; details: Homo sapiens, LS180, 48 h, 1–100 µg·mL^−1, ND = not detected in the tested concentration range
Experimental: (§1) Anticancer activity was evaluated using the sulforhodamine B assay (SRB) on four different human colon cancer cell lines: HT-29, LS180, LoVo and LoVo/DX and green monkey kidney fibroblasts COS7 (ATCC, Manassas, VA, USA). Cell lines HT-29 and COS7 were cultured in α-MEM medium (IIET PAS, Wrocław, Poland), LS180 in OptiMEM medium (IIET PAS), LoVo and LoVo/DX in mixture of α-MEM and OptiMEM medium (1:1 (v:v)). Each culture medium was supplemented with 10% fetal bovine serum, 2 mM glutamine, 100 μg·mL^−1 penicillin, 100 μg·mL^−1 streptomycin and 0.25 μg·mL^−1 amphotericin (all supplements purchased from Gibco (Paisley, UK). Cells were incubated at 37 °C, 5% CO2 in HeraCELL 150i incubator (Thermo Fisher Scientific, Waltham, MA, USA).
(§2) For the SRB assay, cells were seeded onto 96-well plates (Sarstedt, Nümbrecht, Germany) at a density of 5·10^3/well and cultured overnight as described above. Then, the growth medium was gently removed and replaced with fresh medium, supplemented with aminochalcone derivatives in the concentration ranging from 1 µg·mL^−1 to 100 µg·mL^−1. All stock solutions were prepared in DMSO at a concentration of 10 mg·mL^−1. Cells were incubated for 48 h and then the SRB assay was performed as described previously. Each experiment was performed in quadruplicate. The final results were reported as the IC50 values calculated for three independent experiments. Cisplatin (Acros Organics, Waltham, MA, USA) and doxorubicin (Fisher BioReagents, Waltham, MA, USA) were used as positive controls of the test.

LoVo = assay: SRB antiproliferative assay, LoVo; format: cell-based, human; details: Homo sapiens, LoVo, 48 h, 1–100 µg·mL^−1, ND = not detected in the tested concentration range
Experimental: as §1, §2

HT-29 = assay: SRB antiproliferative assay, HT-29; format: cell-based, human; details: for IC50: Homo sapiens, HT-29, SRB, 48 h, 1–100 µg·mL^−1, ND = not detected in the tested concentration range
Experimental: as §1, §2

[2] = test system: Escherichia coli ATCC10536; assay: Microbial growth curve screening, E. coli; format: cell-based; details: 0.1% (w/v); for ∆OD E. coli: OD at 560 nm, control 1.61
Experimental: (§3) The antimicrobial screening tests were performed on two strains of bacteria: E. coli ATCC10536 and S. aureus DSM799, strain of yeast C. albicans DSM1386 and three strains of fungi: F. linii KB-F1, A. alternata CBS1526 and A. niger DSM1957. All microorganisms were obtained from the collection of the Faculty of Biotechnology and Food Microbiology, Wrocław University of Environmental and Life Sciences. The bacteria were cultured in nutrient broth (Biocorp, Warsaw, Poland), yeast and fungi in YM medium (3 g yeast extract, 3 g malt extract, 5 g bacteriological peptone and 10 g of glucose dissolved in 1 L of distilled water). The tests were carried out in 100-well microtiter plates. To each well 280 μL of culture medium, 10 μL of microorganism suspension and 10 μL of aminochalcone (1–18) dissolved in dimethyl sulfoxide (3% (w/v)) were added. The final concentration of the tested compound (1–18) was 0.1% (w/v). Each experiment were performed in 3 replications. The optical density of the cell suspension was measured on Bioscreen C (Automated Growth Curve Analysis System Lab System, Vantaa, Finland) at 560 nm automatically, at regular intervals of 30 min for 2–3 days. Cell cultures were maintained at 28 °C on a continuous shaker. To prepare the growth curves for each strain, the mean values of the absorbance in a function of time were used. The resulting antimicrobial activity was expressed as the increase of optical density (ΔOD) and was compared to that of the control cultures in the medium supplemented with dimethyl sulfoxide and also with reference substances: oxytetracycline (against bacteria), cycloheximide (against yeast) and nystatin (against fungi) (Sigma Aldrich).

[3] = test system: Aspergillus niger DSM1957; assay: MIC evaluation (broth method), A. niger; format: cell-based; details: Aspergillus niger, DSM1957, 48–72 h, read-out: Minimal inhibitory concentration A. niger
Experimental: (§4) Sterile 96-well microtiter plates (Sarstedt) with nutrient broth (for bacteria) (Biocorp) or YM medium (for yeast and filamentous fungi) were inoculated with a standardized cell suspension of bacteria and yeast or fungal spores of 10^5 cell·mL^−1, and supplemented with aminochalcones dissolved in DMSO. […] All analysis were conducted in triplicates. The plates were incubated at 30 °C (bacteria and yeast) or 25 °C (filamentous fungi) for 48–72 h. The results were measured with the Spark® Multimode Microplate Reader (Tecan, Männedorf, Switzerland) at a 560 nm wavelength. The minimal inhibitory concentration was defined as the lowest concentration of a tested compound that completely restricted the growth of the microorganism. In order to verify the obtained results, microbial cultures subjected to each concentration of aminochalcone were inoculated onto nutrient agar or YM plates and incubated as described above. The lack of growth on agar plate was a confirmation of the MIC of the tested compound. The resulting MIC values were compared with the reference substances: oxytetracycline (against bacteria), cycloheximide (against yeast) and nystatin (against fungi) (Sigma Aldrich).

[4] = test system: Staphylococcus aureus DSM799; assay: MIC evaluation (broth method), S. aureus; format: cell-based; details: 48–72 h, read-out: Minimal inhibitory concentration S. aureus
Experimental: as §4

Fusarium linii KB-F1 [5] = assay: MIC evaluation (broth method), F. linii; format: cell-based; details: Fusarium, KBF1, 48–72 h, read-out: Minimal inhibitory concentration F. linii
Experimental: as §4

[6] = test system: Escherichia coli ATCC10536; assay: MIC evaluation (broth method), E. coli; format: cell-based; details: 48–72 h, read-out: Minimal inhibitory concentration E. coli
Experimental: as §4

[7] = test system: Alternaria alternata CBS1526; assay: Microbial growth curve screening, A. alternata; format: cell-based; details: 0.1% (w/v), OD at 560 nm, control 1.86
Experimental: as §3

[8] = test system: Staphylococcus aureus DSM799; assay: Microbial growth curve screening, S. aureus; format: cell-based; details: 0.1% (w/v), OD at 560 nm, control 1.67
Experimental: as §3

[9] = SRB assay, normal fibroblasts COS7; format: cell-based, green monkey; details: green monkey, COS7 kidney fibroblasts (normal cell line), ND = not detected in the tested concentration range
Experimental: as §1, §2

[10] = test system: Alternaria alternata CBS1526; assay: MIC evaluation (broth method), A. alternata; format: cell-based; details: Alternaria alternata, CBS1526, 48–72 h, read-out: Minimal inhibitory concentration A. alternata
Experimental: as §4

[11] = test system: human breast cancer cell line T47D; design: method as in earlier work; details: cited from earlier work
Candida albicans DSM1386 [12] = assay: MIC evaluation (broth method), C. albicans; format: cell-based; details: DSM1386, broth method, 48–72 h, read-out: Minimal inhibitory concentration C. albicans
Experimental: as §4

[13] = test system: all tested microorganisms; assay: MIC evaluation, all tested strains (pooled statement); format: cell-based; details: read-out: MIC values against all tested microorganisms
Experimental: as §4

LoVo/DX = assay: SRB antiproliferative assay, LoVo/DX; format: cell-based, human; details: Homo sapiens, LoVo/DX, 48 h, 1–100 µg·mL^−1, ND = not detected in the tested concentration range
Experimental: as §1, §2

Fusarium linii KB-F1 [14] = assay: Microbial growth curve screening, F. linii; format: cell-based; details: 0.1% (w/v); for ∆OD F. linii: OD at 560 nm, control 1.95; for Lag-phase F. linii: control 13.5 h
Experimental: as §3

[15] = test system: canine malignant histiocytic cell line (DH82); design: method as in PMID 28738308; details: read-out: IC50 DH82 proliferation (literature); cited from earlier work
[16] = test system: Aspergillus niger DSM1957; assay: Microbial growth curve screening, A. niger; format: cell-based; details: 0.1% (w/v)
Experimental: as §3

[17] = test system: HT-29, LS180, LoVo and LoVo/DX; assay: SRB assay, all tested human colon cancer cell lines (pooled statement); format: cell-based; details: range over HT-29, LS180, LoVo, read-out: IC50 values against all tested human colon cancer cell lines
Experimental: as §1
as §2, with “Cisplatin (Acros Organics, Waltham, MA, USA) and doxorubicin (Fisher BioReagents, Waltham, MA, USA) were used as positive controls of the test.” left out

Candida albicans DSM1386 [18] = assay: Microbial growth curve screening, C. albicans; format: cell-based; details: 0.1% (w/v)
Experimental: as §3

HT-29 cell line = test system: HT-29 cell line; design: method as in PMID 24675137; details: cited from earlier work

Compound	IC50 (LS180) [µg/mL]	IC50 (LoVo) [µg/mL]	IC50 (HT-29) [µg/mL]	∆OD E. coli [2]	MIC [3] [µg/mL]	MIC [4] [µg/mL]	MIC [6] [µg/mL]	∆OD A. alternata [7]	∆OD S. aureus [8]	IC50 at 48 h [9] [µg/mL]	MIC [10] [µg/mL]	MIC (Candida albicans DSM1386 [12]) [µg/mL]	IC50 (LoVo/DX) [µg/mL]	∆OD F. linii (Fusarium linii KB-F1 [14])	Lag-phase F. linii (Fusarium linii KB-F1 [14]) [h]	further results
Nc1ccc(C(=O)/C=C/c2ccccc2)cc1 [Compound 3, 4′-Aminochalcone]	4.68 ± 0.09 (≈ 21 µM)	2.84 ± 0.09 (≈ 12.7 µM)	1.98 ± 0.18 (≈ 8.87 µM)	0.0	0.5 (≈ 2.24 µM)	0.25 (≈ 1.12 µM)	0.5 (≈ 2.24 µM)	0.0	0.0	3.85 ± 0.28 (≈ 17.2 µM)	0.5 (≈ 2.24 µM)	0.5 (≈ 2.24 µM)	2.26 ± 0.05 (≈ 10.1 µM)	0	–	growth inhibition of all tested microorganisms [1]: complete inhibition of the growth; MIC (Fusarium linii KB-F1 [5]): 0.25 µg/mL (≈ 1.12 µM); IC50 T47D (literature) [11]: 5.28 µg/mL (≈ 23.6 µM); MIC [13]: 0.25 to 0.5 µg/mL (≈ 1.12 to 2.24 µM)
Nc1ccc(C(=O)/C=C/c2ccc(F)cc2)cc1 [4′-amino-4-fluorochalcone]	–	–	–	–	–	–	–	–	–	–	–	–	–	–	–	IC50 [15]: 34.4 µM
Nc1cccc(C(=O)/C=C/c2ccccc2)c1 [Compound 2, 3′-Aminochalcone]	2.13 ± 0.18 (≈ 9.54 µM)	1.88 ± 0.12 (≈ 8.42 µM)	1.6 ± 0.01 (≈ 7.17 µM)	0.0	–	0.25 (≈ 1.12 µM)	0.25 (≈ 1.12 µM)	0.0	0.0	3.25 ± 0.66 (≈ 14.6 µM)	0.5 (≈ 2.24 µM)	0.5 (≈ 2.24 µM)	1.97 ± 0.3 (≈ 8.82 µM)	0.23	30.0	∆OD A. niger ([16]; OD at 560 nm, control 2.14): 0.34; Lag-phase A. niger ([16]; control 11.0 h): 1.5 h; melting point: 121 to 124 °C; IC50 [17]: 1.6 to 2.13 µg/mL (≈ 7.17 to 9.54 µM)
Nc1ccccc1C(=O)/C=C/c1ccccc1 [Compound 1, 2′-Aminochalcone]	2.06 ± 0.18 (≈ 9.23 µM)	1.56 ± 0.04 (≈ 6.99 µM)	1.43 ± 0.16 (≈ 6.4 µM)	0.12	0.125 (≈ 0.56 µM)	0.25 (≈ 1.12 µM)	–	0.0	0.0	2.64 ± 0.47 (≈ 11.8 µM)	1 (≈ 4.48 µM)	–	1.43 ± 0.02 (≈ 6.4 µM)	0.73	18.5	∆OD C. albicans (Candida albicans DSM1386 [18]; OD at 560 nm, control 1.58): 0.14; Lag-phase C. albicans (Candida albicans DSM1386 [18]; control 3.0 h): 24.5 h; times higher activity than cisplatin, HT-29 (HT-29; ratio of IC50 values vs cisplatin (19)): ~12 times; Lag-phase E. coli ([2]; control 4.0 h): 10.0 h; IC50 HT-29 (literature) (HT-29 cell line): 0.98 µg/mL (≈ 4.39 µM); IC50 (HT-29 cell line; read-out: IC50 HT-29 (literature)): 4.39 µM
